# Test results taken from patent US20110046179A1, “NOVEL PIPERIDINE DERIVATIVES AND THEIR USE AS MONOAMINE NEUROTRANSMITTER RE-UPTAKE INHIBITORS” (priority 2006, published 2011).
# Where a name gives a salt, the structure may show the parent alone.
# What was measured:
# [1] = biological target: T1, dopamine (DA) reuptake in synaptosomes (Rattus norvegicus, UniProt P23977); assay: Inhibition of DA reuptake in synaptosomes; format: biochemical; details: 3H-DA, read-out: DA-uptake IC50
# T1 construct: in synaptosomes as described in WO 97/16451; from tissue; host or cells: synaptosomes (brain tissue)
# T1 sequence (P23977 whole entry): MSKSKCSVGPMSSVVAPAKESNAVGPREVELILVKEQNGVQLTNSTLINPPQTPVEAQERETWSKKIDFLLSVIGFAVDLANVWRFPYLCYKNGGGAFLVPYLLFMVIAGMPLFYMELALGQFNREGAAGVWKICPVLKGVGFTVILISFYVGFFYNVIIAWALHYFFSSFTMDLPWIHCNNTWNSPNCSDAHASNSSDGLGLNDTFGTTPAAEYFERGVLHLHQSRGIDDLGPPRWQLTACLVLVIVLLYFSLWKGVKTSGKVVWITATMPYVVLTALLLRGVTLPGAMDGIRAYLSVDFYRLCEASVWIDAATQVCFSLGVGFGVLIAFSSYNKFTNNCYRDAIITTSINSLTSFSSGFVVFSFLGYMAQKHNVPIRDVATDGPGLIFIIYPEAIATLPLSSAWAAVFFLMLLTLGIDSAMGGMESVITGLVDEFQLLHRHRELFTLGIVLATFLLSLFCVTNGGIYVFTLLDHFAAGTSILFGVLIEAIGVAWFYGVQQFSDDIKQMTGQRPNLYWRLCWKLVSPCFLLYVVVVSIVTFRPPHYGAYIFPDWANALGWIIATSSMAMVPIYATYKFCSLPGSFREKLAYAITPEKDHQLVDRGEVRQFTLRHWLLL
# Procedure: (§1) A number of compounds were tested for their ability to inhibit the reuptake of the monoamine neurotransmitters dopamine (DA) noradrenaline (NA) and serotonine (5-HT) in synaptosomes as described in WO 97/16451.
# (§2) The test values are given as IC50 (the concentration (μM) of the test substance which inhibits the specific binding of ^3H-DA, ^3H-NA, or ^3H-5-HT by 50%).
# [2] = biological target: T2, serotonine (5-HT) reuptake in synaptosomes (Rattus norvegicus, UniProt P31652); assay: Inhibition of 5-HT reuptake in synaptosomes; format: biochemical; details: 3H-5-HT, read-out: 5-HT-uptake IC50
# T2 construct: in synaptosomes as described in WO 97/16451; from tissue; host or cells: synaptosomes (brain tissue)
# T2 sequence (P31652 whole entry): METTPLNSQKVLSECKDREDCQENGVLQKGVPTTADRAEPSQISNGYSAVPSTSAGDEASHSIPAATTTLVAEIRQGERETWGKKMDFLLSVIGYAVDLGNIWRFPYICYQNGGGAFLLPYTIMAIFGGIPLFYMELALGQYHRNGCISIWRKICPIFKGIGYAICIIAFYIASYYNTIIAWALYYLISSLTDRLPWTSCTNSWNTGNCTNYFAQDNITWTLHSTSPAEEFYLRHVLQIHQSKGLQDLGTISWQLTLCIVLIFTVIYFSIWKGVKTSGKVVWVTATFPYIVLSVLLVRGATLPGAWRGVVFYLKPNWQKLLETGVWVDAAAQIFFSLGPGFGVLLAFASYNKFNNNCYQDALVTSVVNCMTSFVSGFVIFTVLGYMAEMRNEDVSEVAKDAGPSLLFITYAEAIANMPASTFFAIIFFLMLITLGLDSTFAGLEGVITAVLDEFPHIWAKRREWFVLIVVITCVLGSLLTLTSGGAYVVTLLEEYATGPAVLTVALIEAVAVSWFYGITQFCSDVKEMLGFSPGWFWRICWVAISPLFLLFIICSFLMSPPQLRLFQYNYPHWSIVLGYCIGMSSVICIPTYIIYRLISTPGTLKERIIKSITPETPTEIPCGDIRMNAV
# Procedure: as §1, §2
# [3] = biological target: T3, noradrenaline (NA) reuptake in synaptosomes (Rattus norvegicus); assay: Inhibition of NA reuptake in synaptosomes; format: biochemical; details: 3H-NA, read-out: NA-uptake IC50
# T3 construct: in synaptosomes as described in WO 97/16451; from tissue; host or cells: synaptosomes (brain tissue)
# T3 sequence (Q63380 1-617): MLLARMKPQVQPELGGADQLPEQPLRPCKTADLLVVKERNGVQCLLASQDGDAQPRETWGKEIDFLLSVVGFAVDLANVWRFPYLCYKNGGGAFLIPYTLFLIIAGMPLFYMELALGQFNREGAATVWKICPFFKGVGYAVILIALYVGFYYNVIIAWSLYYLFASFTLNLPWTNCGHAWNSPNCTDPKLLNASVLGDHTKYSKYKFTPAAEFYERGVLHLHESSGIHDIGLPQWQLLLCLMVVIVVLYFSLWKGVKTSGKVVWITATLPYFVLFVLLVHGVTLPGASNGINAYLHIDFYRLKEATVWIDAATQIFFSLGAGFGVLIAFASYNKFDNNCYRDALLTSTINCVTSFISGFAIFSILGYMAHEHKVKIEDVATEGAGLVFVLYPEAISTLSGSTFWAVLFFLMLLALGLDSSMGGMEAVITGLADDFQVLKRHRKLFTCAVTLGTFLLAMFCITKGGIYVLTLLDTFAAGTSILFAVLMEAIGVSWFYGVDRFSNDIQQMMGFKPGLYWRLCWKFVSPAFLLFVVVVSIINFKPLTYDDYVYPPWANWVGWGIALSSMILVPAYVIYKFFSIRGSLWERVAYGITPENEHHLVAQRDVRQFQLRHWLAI
# Procedure: as §1, §2
Structure (SMILES),melting point [°C],IC50 [1] [nM],IC50 [2] [nM],IC50 [3] [nM]
CCOCC1(Cc2ccc(Cl)c(Cl)c2)CCNCC1.O=C(O)/C=C/C(=O)O,147.4 to 150.6,–,–,–
"Clc1ccc(CC2(COc3ccccc3)CCNCC2)cc1Cl (as salt: fumarate) [Compound 5ac, 4-(3,4-Dichloro-benzyl)-4-phenoxymethyl-piperidine]",165 to 167,–,–,–
"Clc1ccc(CC2(COc3ccc(Cl)c(Cl)c3)CCNCC2)cc1Cl (as salt: fumarate) [Compound 5ae, 4-(3,4-Dichloro-benzyl)-4-(3,4-dichloro-phenoxymethyl)-piperidine]",166.3 to 168.9,–,–,–
"COCC1(Cc2cccc(Cl)c2Cl)CCNCC1 (as salt: fumarate) [Compound 5ba, 4-(2,3-Dichloro-benzyl)-4-methoxymethyl-piperidine]",167 to 168.4,–,–,–
"COCC1(Cc2ccc3ccccc3c2)CCNCC1 (as salt: fumarate) [Compound 5da, 4-Methoxymethyl-4-naphthalen-2-ylmethyl-piperidine]",139 to 142,–,–,–
"OCC1(Cc2ccc(Cl)c(Cl)c2)CCNCC1 [Compound 5a, [4-(3,4-Dichloro-benzyl)-piperidin-4-yl]-methanol]",147.7 to 148.7,–,–,–
"COCC1(Cc2ccc(Cl)c(Cl)c2)CCNCC1.O=C(O)/C=C/C(=O)O [Compound 5aa, 4-(3,4-Dichloro-benzyl)-4-methoxymethyl-piperidine fumaric acid salt]",158.1 to 162.2,1600,22,480
"Clc1ccc(CC2(COc3cccc(Cl)c3Cl)CCNCC2)cc1Cl [Compound 5ad, 4-(3,4-Dichloro-benzyl)-4-(2,3-dichloro-phenoxymethyl)-piperidine]",93.9 to 94.6,–,–,–
"Clc1ccc(OCC2(Cc3ccccc3)CCNCC2)cc1Cl [Compound 5ce, 4-Benzyl-4-(3,4-dichloro-phenoxymethyl)-piperidine]",77.7 to 79.3,6,0.26,4.8
